Test results reported in EP2729445B1, “CYCLIC AMINE DERIVATIVES AS EP4 RECEPTOR ANTAGONISTS” (Rottapharm Biotech S.r.l., priority 2011, dated 2013).
Like-named read-outs stand apart in the source and are kept apart here.

Tests used:
hEP4 receptors [1] = target: T1, hEP4 receptors (Homo sapiens, UniProt P35408); assay: [3H]-Prostaglandin E2 membrane binding assay
T1 construct: membrane fraction used
Protocol: (§1) The cDNA clone of human EP4 receptor (NM_000958.2) was obtained from InvitrogenTM: Ultimate™ ORF Clone Collection - Clone ID IOH46525. The coding sequence was subcloned in expression vector pcDNATM6.2/V5-DEST by Gateway technology (InvitrogenTM). Human embryonic kidney cells (HEK-293) were stably transfected with expression vector for human EP4 receptor in according to the method described in FuGENE®6 Transfection Reagent's manual (Roche Applied Science®).
(§2) The EP4 transfected cells were grown in Dulbecco's modified Eagle's medium containing 10% fetal bovine serum and 10 µg/ml Blasticidin S HCl (selection medium) at 37°C in a humidified atmosphere of 5% CO2 in air. For the membrane preparation, cells in flask were harvested by hypotonical/mechanical lysis with chilled (4°C) TE buffer (5mM TRIS, 5mM ethylenediamine tetra-acetic acid (EDTA), pH 7.4). Cells were detached and lysed with 10ml of hypotonic lysis buffer and by scraping. The cell lysate was vortexed for 30 sec and centrifuged at 40000x g at 4°C for 22min.
The membrane pellet was resuspended in the same buffer (5mM TRIS, 5mM ethylenediamine tetra-acetic acid (EDTA), pH 7.4), and protein concentration was determined by Bradford method (Bio-Bad® assay). This membrane preparation was stored at -80°C freezer until use for binding assay. ([^3H]-PGE2) membranes binding assays toward hEP4 receptors (human EP4/HEK293 transfectant, see above) and hEP2 receptors (human EP2/HEK293 transfectant, purchased from PerkinElmer Inc) were performed in 10 mM MES-KOH buffer pH6, containing 10 mM MgCl2 and 1 mM CaCl2 for EP4 binding assay or 50 mM Tris-Cl, BSA 0.5% for EP2 binding assay (according to supplier indication) . Ten microgram of protein from membrane fractions were incubated in a total volume of 0.1ml (EP4) or 0.2ml (EP2) with 1nM (EP4) or 3nM (EP2) [^3H]-PGE2 (PerkinElmer Inc, 171Ci/mmol). In both assays to determine the total binding or non specific binding, 1% DMSO or 1µM prostaglandin E2 (EP4) or 100 µM (EP2) were added to reaction mixtures, respectively. Incubation was conducted in a polypropylene 96 multiwell for 90 min (EP4) or 60 min (EP2) at room temperature prior to separation of the bound and free radioligand by vacuum manifold rapid filtration on glass fiber filters (Unifilter GFB96, PerkinElmer Inc) pre-soaked in 0.3% polyethyleneimine. Filters were washed with ice cold buffer pH 7.4 (50mM HEPES, NaCl 500mM, BSA 0.1% for EP4 binding assay or 50mM Tris-Cl for EP2 binding assays) and the residual [^3H]-PGE2 binding determined by solid scintillation counter (TopCount , PerkinElmer Inc).
The affinity (Ki) of each compound was calculated according to the Cheng-Prousoff equation: Ki = IC50/(1+([C]/Kd)). Results were expressed as pKi (- log10 Ki (M)

[2] = Pharmacokinetics after intravenous and oral treatment, plasma LC-MS/MS; type: in vivo, male Han Wistar rats; conditions: rat; for AUC(0-t) / AUC(0-inf) / half-life / clearance / Vd / Cmax / Tmax / bioavailability: male, Han Wistar, plasma; for AUC(0-inf): extrapolated to infinity; for half-life / clearance / Vd: extrapolated, indicative only; for clearance: read-out: CLp* (converted); for Vd: read-out: Vss*
Protocol: The pharmacokinetics of compounds E7, E17 and E18, were studied in male Han Wistar rats. The rats were treated intravenously and orally (n=3 for each dose route) with compounds formulated as solutions. The rats were fitted with a jugular cannula for serial sampling. A full profile was acquired from each rat. Plasma extracts were quantitatively analyzed using a specific and sensitive LC-MS/MS bioanalytical method. Inter-individual variations between the three rats in each group were limited (CV for pharmacokinetic parameters was below 50%). […] A range of clearance values were obtained for the different structure, ranging from low to moderate values (from 43 to 250 ml/h). After oral administration, absorption was quite fast with a clear maximum concentration reached by the first sampling time-point of 15 minutes for all compounds.

hEP4 receptors [3] = target: T1, hEP4 receptors; assay: cAMP assay (AlphaScreen) on human EP4 membrane of transfected cells, antagonism of PGE2; type: biochemical; conditions: HEK293 cell membrane stimulated with PGE2 3nM; read-out: functional IC50
Protocol: as §1, §2
The assay is based on the competition between endogenous cAMP and exogenously added biotinylated cAMP. The capture of cAMP is achieved by using a specific antibody conjugated to Donor beads. Cell membranes prepared as described above, were resuspended in 1 ml stimulation buffer (HBSS 1X + BSA 0.1% + IBMX 0.5mM + HEPES 5mM + MgCl2 10mM + GTP 1 nM + GDP 10µM + ATP 100µM - pH 7.4). Cell membranes were dispensed into white 384-well microplates at final concentration of 1µg/well and used for the determination of cAMP with the alphascreen cAMP functional assay (EnVision - PerkinElmer). Cell membrane/anti-cAMP Acceptor beads mix (5 µl) and a mixture of analysed compounds (dissolved in 100% DMSO to a final maximal concentration of 0.01% DMSO)/PGE2 (5 µl) were incubated at room temperature (22-23°C) for 30 min in the dark. The Biotinylated-cAMP and donor beads (15 µl) were dispensed into each well to start the competition reaction. After 1 h incubation RT (22-23°C) in the dark the plate was read using EnVision platform to determine the cAMP level (excitation: 680nm; emission:520,620nm). In each experiment:
cAMP standard curve (concentration range from 1x10-6 to 1x10-11 M in log intervals) with a negative control (no cAMP)
a positive control: forskolin 10µM
Antagonism studies were performed stimulating HEK293 cell membrane with PGE2 3nM. The AlphaScreen signal is plotted as a function of log concentration of cAMP and functional IC50 is determined. IC50 value is calculated by linear regression.

[4] = read-out: Binding pKi (converted)
[5] = human EP4/HEK293 transfectant membranes, 1nM [3H]-PGE2, Ki from IC50 by Cheng-Prousoff, pKi = -log10 Ki (M)

T1 sequence (P35408 whole entry): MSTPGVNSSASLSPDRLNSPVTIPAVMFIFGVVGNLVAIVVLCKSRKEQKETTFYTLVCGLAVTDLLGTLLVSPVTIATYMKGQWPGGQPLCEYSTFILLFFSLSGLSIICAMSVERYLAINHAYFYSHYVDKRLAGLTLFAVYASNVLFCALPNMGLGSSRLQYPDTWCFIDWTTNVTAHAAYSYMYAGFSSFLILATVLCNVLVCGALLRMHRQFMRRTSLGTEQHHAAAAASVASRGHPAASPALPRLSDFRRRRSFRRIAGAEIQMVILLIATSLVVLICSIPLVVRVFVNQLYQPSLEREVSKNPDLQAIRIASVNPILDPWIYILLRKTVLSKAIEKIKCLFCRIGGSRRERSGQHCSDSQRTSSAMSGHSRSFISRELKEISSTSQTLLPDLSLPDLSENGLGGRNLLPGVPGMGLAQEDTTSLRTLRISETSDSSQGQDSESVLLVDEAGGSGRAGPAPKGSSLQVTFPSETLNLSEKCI

Q: Which Ki (hEP4 receptors [1]; [4]) does the source give for `O=C(O)c1ccc(C2(NC(=O)C3CC4(CCN3Cc3ccc(C(F)(F)F)cc3)CC4)CC2)cc1` (single isomer, unassigned) [Example E7, 4-(1-(6-(4-(trifluoromethyl)benzyl)-6-azaspiro[2.5]octane-5-carboxamido)cyclopropyl)benzoic acid] here?
A: 3.16e-08 M

Q: And the AUC(0-t) ([2]; iv, 5 mg/kg)?
A: 29200 ng·h/mL

Q: And the AUC(0-inf) ([2]; iv, 5 mg/kg)?
A: 31800 ng·h/mL

Q: What about the half-life ([2]; iv, 5 mg/kg) of the same compound?
A: 7.4 h

Q: And the clearance ([2]; iv, 5 mg/kg)?
A: 0.717 mL/min

Q: What about the Vd ([2]; iv, 5 mg/kg) of the same compound?
A: 0.395 L

Q: What about the AUC(0-t) ([2]; po, 5 mg/kg) of the same compound?
A: 22900 ng·h/mL

Q: And the Cmax ([2]; po, 5 mg/kg)?
A: 5330 ng/mL

Q: And the Tmax ([2]; po, 5 mg/kg)?
A: 0.5 h

Q: And the bioavailability ([2]; po, 5 mg/kg, absolute oral bioavailability)?
A: 78%

Q: And the AUC(0-inf) ([2]; po, 5 mg/kg)?
A: 24900 ng·h/mL

Q: What about the half-life ([2]; po, 5 mg/kg) of the same compound?
A: 6.7 h

Q: And the “Tlast” value ([2]; iv, 5 mg/kg)?
A: 24 h

Q: What about the “Tlast” value ([2]; po, 5 mg/kg) of the same compound?
A: 24 h

Q: What about the IC50 (hEP4 receptors [3]) of the same compound?
A: 22 nM

Q: With `O=C(O)c1ccc(C2(NC(=O)C3CC4(CCN3Cc3cccc(C(F)(F)F)c3)CC4)CC2)cc1` (single isomer, unassigned) [Example E9, 4-(1-(6-(3-(trifluoromethyl)benzyl)-6-azaspiro[2.5]octane-5-carboxamido)cyclopropyl)benzoic acid] as the compound, how does the Ki (hEP4 receptors [1]; [5]) read?
A: 6.31e-09 M

Q: And the IC50 (hEP4 receptors [3])?
A: 4 nM

Q: For `C[C@H](NC(=O)C1CC2(CCN1Cc1ccc(C(F)(F)F)cc1)CC2)c1ccc(C(=O)O)cc1` (single isomer, unassigned) [Example E10], which Ki (hEP4 receptors [1]; [4]) is on record?
A: 3.98e-08 M

Q: And the IC50 (hEP4 receptors [3])?
A: 29 nM

Q: With `C[C@H](NC(=O)C1CC(C)(C)CCN1Cc1ccc(C(F)(F)F)cc1)c1ccc(C(=O)O)cc1` (single isomer, unassigned) [Example E13] as the compound, how does the Ki (hEP4 receptors [1]; [5]) read?
A: 1.26e-08 M

Q: And the IC50 (hEP4 receptors [3])?
A: 8 nM

Q: With `O=C(O)c1ccc(C2(NC(=O)C3CC(F)(F)CCN3Cc3ccc(C(F)(F)F)cc3)CC2)cc1` (single isomer, unassigned) [Example E18, 4-(1-(4,4-difluoro-1-(4-(trifluoromethyl)benzyl)piperidine-2-carboxamido)cyclopropyl)benzoic acid] as the compound, how does the Ki (hEP4 receptors [1]; [4]) read?
A: 6.31e-09 M

Q: What about the AUC(0-t) ([2]; iv, 1 mg/kg) of the same compound?
A: 1260 ng·h/mL

Q: And the AUC(0-inf) ([2]; iv, 1 mg/kg)?
A: 1390 ng·h/mL

Q: And the half-life ([2]; iv, 1 mg/kg)?
A: 9.3 h

Q: And the clearance ([2]; iv, 1 mg/kg)?
A: 3.17 mL/min

Q: And the Vd ([2]; iv, 1 mg/kg)?
A: 1.7 L

Q: What about the AUC(0-t) ([2]; po, 1 mg/kg) of the same compound?
A: 1170 ng·h/mL

Q: And the Cmax ([2]; po, 1 mg/kg)?
A: 556 ng/mL

Q: And the Tmax ([2]; po, 1 mg/kg)?
A: 0.5 h

Q: And the AUC(0-inf) ([2]; po, 1 mg/kg)?
A: 1200 ng·h/mL

Q: What about the half-life ([2]; po, 1 mg/kg) of the same compound?
A: 5.1 h

Q: And the bioavailability ([2]; po, 1 mg/kg)?
A: 93%

Q: And the “Tlast” value ([2]; iv, 1 mg/kg)?
A: 24 h

Q: And the “Tlast” value ([2]; po, 1 mg/kg)?
A: 24 h

Q: What about the IC50 (hEP4 receptors [3]) of the same compound?
A: 11 nM

Q: For `O=C(O)c1ccc(C2(NC(=O)C3CC4CC4CN3Cc3ccc(C(F)(F)F)cc3)CC2)cc1` (single isomer, unassigned) [Example E23, 4-(1-(3-(4-(trifluoromethyl)benzyl)-3-azabicyclo[4.1.0]heptane-4-carboxamido)cyclopropyl)benzoic acid], which Ki (hEP4 receptors [1]; [4]) is on record?
A: 1e-08 M

Q: What about the IC50 (hEP4 receptors [3]) of the same compound?
A: 11.5 nM

Q: With `O=C(O)c1ccc(C2(NC(=O)[C@H]3CCCCN3Cc3ccc(C(F)(F)F)cc3)CC2)cc1` [Example E4, lithium (R)-4-(1-(1-(4-(trifluoromethyl)benzyl)piperidine-2-carboxamido)cyclopropyl)benzoate] as the compound, how does the IC50 (hEP4 receptors [3]) read?
A: 32 nM

Q: With `C[C@H](NC(=O)[C@H]1CC(F)(F)CCN1Cc1ccc(C(F)(F)F)cc1)c1ccc(C(=O)O)cc1` [Example E16, 4-((S)-1-((R)-4,4-difluoro-1-(4-(trifluoromethyl)benzyl)piperidine-2-carboxamido)ethyl)benzoic acid] as the compound, how does the Ki (hEP4 receptors [1]; [5]) read?
A: 2e-08 M

Q: What about the IC50 (hEP4 receptors [3]) of the same compound?
A: 9 nM

Q: Which results are given for `O=C(O)c1ccc(C2(NC(=O)[C@H]3CCC4CC4N3Cc3ccc(C(F)(F)F)cc3)CC2)cc1` (stereo partly drawn) [Example E25, 4-(1-((3R)-2-(4-(trifluoromethyl)benzyl)-2-azabicyclo[4.1.0]heptane-3-carboxamido)cyclopropyl)benzoic acid]?
A: Ki (hEP4 receptors [1]; [4]): 3.16e-09 M; IC50 (hEP4 receptors [3]): 43 nM

Q: Which Ki (hEP4 receptors [1]; [4]) does the source give for `C[C@H](NC(=O)[C@H]1CCC2CC2N1Cc1ccc(C(F)(F)F)cc1)c1ccc(C(=O)O)cc1` (stereo partly drawn) [Example E26, 4-((1S)-1-((3R)-2-(4-(trifluoromethyl)benzyl)-2-azabicyclo[4.1.0]heptane-3-carboxamido)ethyl)benzoic acid] here?
A: 1.58e-09 M

Q: And the IC50 (hEP4 receptors [3])?
A: 42 nM

Q: Which IC50 (hEP4 receptors [3]) does the source give for `C[C@H](NC(=O)[C@H]1CCCN1Cc1ccc(C(F)(F)F)cc1)c1ccc(C(=O)O)cc1` [Example E27, lithium 4-((S)-1-((R)-1-(4-(trifluoromethyl)benzyl)pyrrolidine-2-carboxamido)ethyl)benzoate] here?
A: 50 nM

Q: What does the source list for `O=C(O)c1ccc(C2(NC(=O)[C@H]3C[C@H]4C[C@H]4N3Cc3cccc(C(F)(F)F)c3)CC2)cc1` [Example E29, 4-(1-((1R,3R,5R)-2-(3-(trifluoromethyl)benzyl)-2-azabicyclo[3.1.0]hexane-3-carboxamido)cyclopropyl)benzoic acid]?
A: Ki (hEP4 receptors [1]; [4]): 2.51e-09 M; IC50 (hEP4 receptors [3]): 16 nM

Q: Which Ki (hEP4 receptors [1]; [5]) does the source give for `O=C(O)c1ccc(C2(NC(=O)[C@H]3C[C@H]4C[C@H]4N3Cc3ccc(C(F)(F)F)cc3)CC2)cc1` [Example E30, 4-(1-((1R,3R,5R)-2-(4-(trifluoromethyl)benzyl)-2-azabicyclo[3.1.0]hexane-3-carboxamido)cyclopropyl)benzoic acid] here?
A: 5.01e-09 M

Q: What about the IC50 (hEP4 receptors [3]) of the same compound?
A: 21 nM
